Laboratory results taken from ChEMBL document CHEMBL2021840 (Eur J Med Chem, 2012).

Test system: MCF7
Assay: Antiproliferative activity against human MCF7 cells
Assay type: functional, cell-based
Settings: Homo sapiens, MCF7; read-out: IC50; call rule not given here

Compound	IC50 [nM]
Oc1ccc2c(Cc3ccc(OCCN4CCCCC4)cc3)c(C3CCCC3)sc2c1	10
CCc1sc2cc(O)ccc2c1Cc1ccc(OCCN2CCCCC2)cc1	400
Cc1cc(-c2sc3cc(O)ccc3c2C(=O)c2ccc(OCCN3CCCCC3)cc2)cc(C)c1O	100
Oc1ccc2c(Cc3ccc(OCCN4CCCCC4)cc3)c(C3CCCCC3)sc2c1	10
CC(C)c1sc2cc(O)ccc2c1Cc1ccc(OCCN2CCCCC2)cc1	100
Cc1sc2cc(O)ccc2c1Cc1ccc(OCCN2CCCCC2)cc1	600
Oc1ccc2c(Cc3ccc(OCCN4CCCCC4)cc3)c([C@H]3CC[C@H](O)CC3)sc2c1	2
O=C(c1ccc(OCCN2CCCCC2)cc1)c1c2ccc(O)cc2sc1[C@H]1CC[C@H](O)CC1	0.5
O=C(c1ccc(OCCN2CCCCC2)cc1)c1c(-c2ccccc2)sc2ccccc12	300
COc1ccc2c(C(=O)c3ccc(OCCN4CCCCC4)cc3)c([C@H]3CC[C@@H](O)CC3)sc2c1	100

The remaining lines, values ahead:

IC50 [nM]	Compound
250	COc1ccc2c(C(=O)c3ccc(OCCN4CCCCC4)cc3)c(-c3ccc(O)cc3)sc2c1
0.3	O=C(c1ccc(OCCN2CCCCC2)cc1)c1c(-c2ccc(O)c(F)c2)sc2cc(O)ccc12
500	Cc1cc2c(C(=O)c3ccc(OCCN4CCCCC4)cc3)c(-c3ccc(O)cc3)sc2c(C)c1O
35	O=C(c1ccc(OCCN2CCCCC2)cc1)c1c(-c2ccc(O)cc2)sc2ccccc12
3	O=C(c1ccc(OCCN2CCCCC2)cc1)c1c(-c2ccc(O)cc2)sc2cc(O)c(F)cc12
1000	COc1ccc(-c2sc3cc(O)ccc3c2C(=O)c2ccc(OCCN3CCCCC3)cc2)cc1
400	O=C(c1ccc(OCCN2CCCCC2)cc1)c1c(-c2ccc(O)cc2)sc2cc(O)c(O)cc12
2.3	O=C(c1ccc(OCCN2CCCCC2)cc1)c1c(-c2ccc(O)c(Cl)c2)sc2cc(O)ccc12
300	COc1ccc(-c2sc3cc(OC)ccc3c2C(=O)c2ccc(OCCN3CCCCC3)cc2)cc1
1	Cc1cc(-c2sc3cc(O)ccc3c2C(=O)c2ccc(OCCN3CCCCC3)cc2)ccc1O

Same assay, conditions: mcf7

Compound	IC50
C[C@]12CC[C@@H]3c4ccc(O)cc4CC[C@H]3[C@@H]1CC[C@@H]2O [ESTRADIOL]	Not Active

Test system: MCF7
Assay: Antiproliferative activity against human MCF7 cells after 7 days
Assay type: functional, cell-based
Settings: MCF7, 168 h

Compound	IC50 [nM]
C[C@H](COc1ccc(C(=O)c2c(-c3ccc(O)cc3)sc3cc(O)ccc23)cc1)N1CCCC1	0.2
C[C@H]1CCN(CCOc2ccc(C(=O)c3c(-c4ccc(O)cc4)sc4cc(O)ccc34)cc2)C1	1

Molecular target: T1, Estrogen receptor beta (Homo sapiens, UniProt Q92731)
Assay: Relative binding affinity to human ERbeta
Settings: not given

T1 sequence (Q92731 whole entry): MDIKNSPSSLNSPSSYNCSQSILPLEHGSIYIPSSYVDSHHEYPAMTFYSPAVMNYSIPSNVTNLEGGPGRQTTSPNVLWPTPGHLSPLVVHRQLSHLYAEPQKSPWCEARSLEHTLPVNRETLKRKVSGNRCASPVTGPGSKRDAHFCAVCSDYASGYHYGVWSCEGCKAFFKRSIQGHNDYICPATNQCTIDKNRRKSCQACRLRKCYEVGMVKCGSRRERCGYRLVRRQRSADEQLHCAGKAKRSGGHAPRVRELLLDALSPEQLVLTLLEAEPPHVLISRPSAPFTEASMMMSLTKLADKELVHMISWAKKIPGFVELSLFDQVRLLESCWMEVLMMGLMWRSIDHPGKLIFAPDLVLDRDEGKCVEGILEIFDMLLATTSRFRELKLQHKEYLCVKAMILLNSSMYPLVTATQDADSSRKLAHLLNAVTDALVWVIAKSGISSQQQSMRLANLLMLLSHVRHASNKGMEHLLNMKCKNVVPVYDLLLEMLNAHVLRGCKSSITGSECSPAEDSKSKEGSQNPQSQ

relative binding affinity (RBA)	Compound
27	O=C(c1ccc(OCCN2CCCCC2)cc1)c1c(-c2ccccc2CCF)sc2cc(O)ccc12
24	O=C(c1ccc(OCCN2CCCCC2)cc1)c1c(-c2ccc(O)cc2CCCF)sc2cc(O)ccc12
30	O=C(c1ccc(OCCN2CCCCC2)cc1)c1c(-c2ccccc2CCCF)sc2cc(O)ccc12

Compound	relative binding affinity (RBA)
C[C@]12CC[C@@H]3c4ccc(O)cc4CC[C@H]3[C@@H]1CC[C@@H]2O [ESTRADIOL]	3.5

Molecular target: T2, Estrogen receptor (Homo sapiens, UniProt P03372)
T2 sequence (P03372 whole entry): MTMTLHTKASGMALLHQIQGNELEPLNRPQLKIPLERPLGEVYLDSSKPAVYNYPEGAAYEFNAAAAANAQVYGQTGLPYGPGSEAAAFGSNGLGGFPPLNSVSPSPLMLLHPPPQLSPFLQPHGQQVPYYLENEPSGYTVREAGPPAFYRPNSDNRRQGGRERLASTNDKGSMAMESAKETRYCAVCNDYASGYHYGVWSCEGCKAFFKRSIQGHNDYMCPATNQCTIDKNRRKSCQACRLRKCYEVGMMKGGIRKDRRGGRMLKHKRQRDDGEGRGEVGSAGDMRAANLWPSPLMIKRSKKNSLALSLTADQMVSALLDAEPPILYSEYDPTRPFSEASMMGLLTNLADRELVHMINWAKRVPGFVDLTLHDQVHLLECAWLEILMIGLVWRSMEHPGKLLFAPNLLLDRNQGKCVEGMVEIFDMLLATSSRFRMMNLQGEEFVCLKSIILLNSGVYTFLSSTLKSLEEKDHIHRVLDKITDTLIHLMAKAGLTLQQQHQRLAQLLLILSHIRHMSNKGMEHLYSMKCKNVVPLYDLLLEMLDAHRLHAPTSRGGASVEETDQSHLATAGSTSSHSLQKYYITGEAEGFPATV
Assay: Displacement of [3H]-17beta-estradiol from ERalpha
Settings: not given

IC50 [nM]	Compound
0.22	O=C(c1ccc(N2CCN(C(=O)c3ccc(Cl)cc3)CC2)cc1)c1c(-c2ccc(O)cc2)sc2cc(O)ccc12

Molecular target: T1, Estrogen receptor beta
Assay: Displacement of [3H]-17beta-estradiol from ERbeta
Settings: not given

IC50 [nM]	Compound
9.07	O=C(c1ccc(N2CCN(C(=O)c3ccc(Cl)cc3)CC2)cc1)c1c(-c2ccc(O)cc2)sc2cc(O)ccc12

Test system: not listed separately
Assay: Selectivity ratio of IC50 for ERbeta to IC50 for ERalpha
Settings: not given

Ratio IC50	Compound
121	CC(C)N1CCN(c2ccc(C(=O)c3c(-c4ccc(O)cc4)sc4cc(O)ccc34)cc2)CC1
41	O=C(c1ccc(N2CCN(C(=O)c3ccc(Cl)cc3)CC2)cc1)c1c(-c2ccc(O)cc2)sc2cc(O)ccc12
46.2	Cc1cccc(C(=O)N2CCN(c3ccc(C(=O)c4c(-c5ccc(O)cc5)sc5cc(O)ccc45)cc3)CC2)c1
